Laboratory results from publication PMC7564282, “Juniperonic Acid Biosynthesis is Essential in Caenorhabditis elegans Lacking Δ6 Desaturase (fat-3) and Generates New ω-3 Endocannabinoids” (Cells, 2020).
Where two headings read alike, the source gives them in different places.

How the values were obtained:
[1] = system: 2-OG hydrolysis in whole worm homogenates; test: Competitive [3H]2-OG hydrolysis assay in whole worm homogenate; format: biochemical, C. elegans
Procedure: (§1) Worm homogenization and membrane preparation: the animals were collected from NGM plates as described before. The animals were freshly broken/homogenized by tip sonication before the beginning of every assays in S-basal and then a protein estimation was carried out for these samples, by a standard BCA kit (Sigma-Aldrich, St. Louis, MO, USA). For membrane preparations the worm pellet was resuspended in homogenization buffer (50 mM Tris HCl pH = 7.4, 3 mM MgCl2, 1 mM EGTA). Next, the homogenate was transferred to an ultracentrifuge tube and spun at 100,000× g for 60 min at 4 °C. The supernatant was carefully removed and the pellet was gently washed. Then, the pellet was resuspended with the help of a polytron in 50 mM Tris HCl pH = 7.4 and passed through a clean syringe. Finally, the sample was sonicated in a water bath for 5 min. A protein estimation for the membranes was carried out and the aliquots were frozen and stored at −80 °C.
(§2) AEA and [^3H] 2-OG, respectively. The reaction was performed using worm homogenate (200 or 100 µg per sample) or pig brain homogenate (200 µg per sample) in 194 μL of assay buffer (10 mM Tris-HCl, 1 mM EDTA, 0.1 % BSA, pH 8.0). […] Signal was detected with TRICARB 2100TR scintillation counter and results were analyzed with GraphPad Prism 5® and expressed as [^3H] […]

MAGL = test: Competitive [3H]2-OG hydrolysis assay in pig brain homogenate; format: biochemical
NPR-32 = target: T1, NPR-32 (Caenorhabditis elegans, UniProt O62403); test: NPR-32 competitive binding assay with [3H]CP55,940 on N2 (WT) membrane preparations; design: species or system C. elegans
T1 sequence (O62403 1-440): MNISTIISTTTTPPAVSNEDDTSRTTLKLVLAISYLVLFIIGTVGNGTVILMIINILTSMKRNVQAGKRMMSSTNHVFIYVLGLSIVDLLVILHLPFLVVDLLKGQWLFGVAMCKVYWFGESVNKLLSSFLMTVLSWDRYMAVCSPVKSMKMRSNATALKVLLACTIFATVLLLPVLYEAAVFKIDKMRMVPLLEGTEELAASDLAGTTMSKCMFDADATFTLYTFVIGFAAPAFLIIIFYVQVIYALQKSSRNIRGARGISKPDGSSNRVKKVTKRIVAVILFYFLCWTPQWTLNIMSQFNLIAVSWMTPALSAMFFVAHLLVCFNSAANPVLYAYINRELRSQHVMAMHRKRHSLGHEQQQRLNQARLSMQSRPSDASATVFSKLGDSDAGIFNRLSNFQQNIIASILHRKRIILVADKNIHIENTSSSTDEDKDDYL
Procedure: as §1
CP55,940 for 75 min at 30 °C. After the incubation time, membrane suspensions were rapidly filtered through a 0.1% polyethyleneimine presoaked 96-well microplate bonded with GF/B glass fiber filters (UniFilter-96 GF/B, PerkinElmer Life Sciences) under vacuum and washed 12 times with 120 µL of washing buffer (50 mM Tris-HCl, 2.5 mM EDTA, 5 mM MgCl2, 0.5% BSA, pH 7.5). […] The results were analyzed with GraphPad Prism 5® and expressed as % of [^3H]CP55,940 binding. IC50 values of each compound were estimated from fitted nonlinear curves and were used to calculate the Ki values by applying the Cheng-Prusoff equation.

N2 (WT) animals = test: Lifespan assay, N2 (WT); format: in vivo, C. elegans; details: supplementation, 23 °C, 50 μg/mL FUDR
Procedure: (§3) Ten mM stock solutions of AA, ω-3 AA and JuA were prepared in DMSO and kept at −20 °C. These stocks were diluted in E. coli OP50 to a final concentration of 200 μM, and 100 μL of the volume was seeded onto each plate, with appropriate DMSO controls, allowing drying for 1 h in the dark. The animals that were treated with the PUFAs from hatching were allowed to grow on these plates until they reached L4 larval stage.
All lifespan assays were carried out at 23 °C. Synchronized populations were obtained by allowing 10–15 hermaphrodites lay eggs overnight, and the next day the parents were removed. The eggs were allowed to hatch and 30 L4/young adult animals per plate (NGM plate containing 50 μg/mL FUDR to prevent the growth of progeny) were used for each assay. All the assays were carried out at least in triplicates and a minimum of two independent trials were performed for all conditions. The dead animals were counted starting the next day and exploding, protruding, bagging or contaminated animals were censored if applicable. We defined the day when we transferred the L4/young adult animals as day 0 of adult age. All statistical analyses were carried out using results that were analyzed with GraphPad Prism 5®. Kaplan–Meier lifespan analysis was carried out, and p values were calculated using the log-rank test. p < 0.05 was accepted as statistically significant.

fat-3(wa22) mutant [2] = test: Brood size assay after dietary PUFA supplementation; format: in vivo, C. elegans; details: for hatching and brood size defects: fat-3(wa22), 200 μM in E. coli OP50 diet, p < 0.0001
Procedure: as §3
N2 (WT) and fat-3(wa22) were transferred onto NGM plates supplemented with PUFAs as described above. Once they reached L4 larval stage, one worm per plate was transferred to a plate freshly seeded with PUFAs and allowed to grow at 23 °C. These animals were transferred to new plates every 24 h until they ceased to lay eggs. The number of hatched progeny was checked and counts were performed after the population reached L3/L4 stage. This assay was carried out in three independent trials. Results were analyzed with GraphPad Prism 5®, San Diego, CA, USA. The data were pooled and analyzed using Student’s t test. p < 0.05 was accepted as statistically significant.
The RNA interference (RNAi) by feeding assay was performed on NGM agar plates supplemented with additional antibiotics ([…], […]) and 0.8 mM isopropyl-β-D-thiogalactopyranosid (IPTG). The Ahringer RNAi collection was used, E. coli HT115 bacteria containing RNAi vectors expressing double-stranded RNA of the genes fat-4, elo-1, and elo-2 were pre-cultured, induced with IPTG, and used as nematode food as described previously. Assays were carried out on plates seeded with RNAi bacteria induced overnight; the PUFAs were dissolved in sterile distilled water, and then overlaid on the plates just before the assays.

fat-3(wa22) mutant [3] = test: Development monitoring after dietary PUFA supplementation; format: in vivo, C. elegans; details: 200 μM in E. coli OP50 diet, 36 h after hatching, 23 °C
Procedure: as §3, with “stage. For monitoring the development N2 (WT) and fat-3(wa22) gravid animals were allowed to lay eggs for 2–3 h. These eggs were transferred onto NGM plates supplemented with PUFAs as described above. Their growth was monitored and then imaged using an AmScope MU1000 camera, USA.” for “stage.”

FAAH-1 = target: T2, FAAH-1 (Caenorhabditis elegans, UniProt Q17449); test: Competitive [3H]AEA hydrolysis assay in whole worm homogenate; format: biochemical, C. elegans
T2 construct: from tissue; host or cells: whole C. elegans worm homogenate
T2 sequence (Q17449 15-572): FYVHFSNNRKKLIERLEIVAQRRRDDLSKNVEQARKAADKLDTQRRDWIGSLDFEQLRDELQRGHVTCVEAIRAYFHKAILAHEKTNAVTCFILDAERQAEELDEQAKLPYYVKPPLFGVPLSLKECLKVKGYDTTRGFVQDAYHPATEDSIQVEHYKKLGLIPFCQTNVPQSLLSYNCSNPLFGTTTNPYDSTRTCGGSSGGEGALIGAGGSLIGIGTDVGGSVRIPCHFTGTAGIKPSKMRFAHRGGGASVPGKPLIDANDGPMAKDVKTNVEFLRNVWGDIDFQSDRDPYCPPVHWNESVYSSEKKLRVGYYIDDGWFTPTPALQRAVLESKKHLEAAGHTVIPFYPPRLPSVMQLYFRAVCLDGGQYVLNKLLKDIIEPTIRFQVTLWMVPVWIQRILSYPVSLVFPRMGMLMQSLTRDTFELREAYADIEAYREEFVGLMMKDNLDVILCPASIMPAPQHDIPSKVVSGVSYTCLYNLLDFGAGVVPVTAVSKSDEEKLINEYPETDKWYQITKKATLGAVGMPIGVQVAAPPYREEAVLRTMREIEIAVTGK
Procedure: as §1, §2

FAAH = target: T3, FAAH (Sus scrofa, UniProt Q9TUI8); test: Competitive [3H]AEA hydrolysis assay in pig brain homogenate; format: biochemical
T3 construct: or pig brain homogenate (200 µg per sample); from tissue; host or cells: pig brain homogenate
T3 sequence (Q9TUI8 1-579): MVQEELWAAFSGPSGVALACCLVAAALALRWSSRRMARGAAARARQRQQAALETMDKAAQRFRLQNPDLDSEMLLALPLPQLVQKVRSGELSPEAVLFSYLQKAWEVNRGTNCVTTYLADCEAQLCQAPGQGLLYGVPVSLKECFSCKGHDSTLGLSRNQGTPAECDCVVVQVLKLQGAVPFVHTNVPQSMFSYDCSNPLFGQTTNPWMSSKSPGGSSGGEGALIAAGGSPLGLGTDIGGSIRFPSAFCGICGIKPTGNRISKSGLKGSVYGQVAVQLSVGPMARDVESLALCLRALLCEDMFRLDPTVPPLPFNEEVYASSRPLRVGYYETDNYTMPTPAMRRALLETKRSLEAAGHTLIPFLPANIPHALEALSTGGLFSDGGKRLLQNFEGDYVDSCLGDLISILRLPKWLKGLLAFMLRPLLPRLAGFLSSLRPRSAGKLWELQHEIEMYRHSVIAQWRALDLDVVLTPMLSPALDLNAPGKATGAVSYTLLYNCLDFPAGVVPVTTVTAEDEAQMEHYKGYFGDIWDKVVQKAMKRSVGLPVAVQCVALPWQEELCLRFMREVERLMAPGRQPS
Procedure: AEA and [^3H] 2-OG, respectively. The reaction was performed using worm homogenate (200 or 100 µg per sample) or pig brain homogenate (200 µg per sample) in 194 μL of assay buffer (10 mM Tris-HCl, 1 mM EDTA, 0.1 % BSA, pH 8.0). […] The reaction was stopped by adding 400 μL of ice-cold mixture CHCl3-CH3OH (1:1 v/v), and, subsequently, tubes were vortexed and centrifuged for 10 min at 4 °C and 10,000 rpm. Finally, the upper aqueous phase was transferred to scintillation vials and mixed with 3 mL of Ultima Gold scintillation liquid. Signal was detected with TRICARB 2100TR scintillation counter and results were analyzed with GraphPad Prism 5® and expressed as [^3H] AEA or [^3H] 2-OG hydrolysis (% of vehicle).

[4] = displacement of 3 nM [3H]CP55,940, N2 (WT) membranes, 5 µM JZL-195 preincubation; apparent Ki by Cheng-Prusoff; 95% CI; read-out: Ki, NPR-32 binding
[5] = read-out: Ki, NPR-32 binding; displacement of 3 nM [3H]CP55,940, N2 (WT) membranes, 5 µM JZL-195 preincubation; apparent Ki by Cheng-Prusoff; 95% CI

Compound: 1/2-juniperoylglycerol [1/2-JG]
- competition with 2-OG hydrolysis [1]: competed
- hydrolysis by MAGL (competition with tritiated 2-OG) (MAGL): readily hydrolyzed
- Ki (NPR-32; [4]): 1100 nM

Compound: CCCCC/C=C\C/C=C\C/C=C\C/C=C\CCCC(=O)O [AA, Arachidonic acid]
- effect on lifespan (N2 (WT) animals): did not affect the lifespan
- hatching and brood size defects (fat-3(wa22) mutant [2]): recovered
- recovery of growth and development defects (fat-3(wa22) mutant [3]): significant recovery of growth and development defects

Compound: CC/C=C\C/C=C\C/C=C\C/C=C\CCCCCCC(=O)NCCO [ω-3 AEA, Omega-3 N-arachidonoyl ethanolamine]
- IC50 (FAAH-1; whole worm homogenate, 20 min 37 °C, AEA final 2 µM, read-out: IC50, competition with [3H] AEA hydrolysis): 36 µM
- Ki (NPR-32; [5]): 1000 nM
- IC50 (FAAH; 20 min 37 °C, AEA final 2 µM, read-out: IC50, competition with [3H]-AEA hydrolysis): > 100 µM

Compound: Omega-3 1/2-arachidonoyl glycerol [ω-3 1/2-AG]
- competition with 2-OG hydrolysis [1]: competed

Compound: CCCCC/C=C\C/C=C\C/C=C\C/C=C\CCCC(=O)NCCO [AEA, N-arachidonoyl ethanolamine]
- Ki (NPR-32; [5]): 1900 nM

Compound: CC/C=C\C/C=C\C/C=C\C/C=C\CCCCCCC(=O)O [ω-3 AA, Omega-3 arachidonic acid]
- effect on lifespan (N2 (WT) animals): did not affect the lifespan
- hatching and brood size defects (fat-3(wa22) mutant [2]): recovered
- recovery of growth and development defects (fat-3(wa22) mutant [3]): significant recovery of growth and development defects

Compound: CC/C=C\C/C=C\C/C=C\CCCC/C=C\CCCC(=O)NCCO [JEA, N-juniperoyl ethanolamine]
- competition with AEA hydrolysis (FAAH-1; whole worm homogenates): competed
- Ki (NPR-32; [4]): 740 nM
- hydrolysis by FAAH (competition with tritiated AEA) (FAAH): readily hydrolyzed

Compound: CC/C=C\C/C=C\C/C=C\CCCC/C=C\CCCC(=O)O [JuA, Juniperonic acid]
- effect on lifespan (N2 (WT) animals): did not affect the lifespan
- reversal of growth delay and brood size reduction in RNAi knockdowns (fat-3(wa22) mutant [2]; fat-3(wa22) with fat-4 and elo-2 RNAi knockdown, JuA supplementation): could reverse the additional detrimental effects
- hatching and brood size defects (fat-3(wa22) mutant [2]): recovered
- recovery of growth and development defects (fat-3(wa22) mutant [3]): significant recovery of growth and development defects
